In patent US8513221B2, “PI3K isoform selective inhibitors” (Xcovery Holding, LLC, priority 2008, dated 2013):
Like-named read-outs stand apart in the source and are kept apart here.

Tests used:
PI3Kγ = biological target: T1, PI3Kγ (Homo sapiens, UniProt P48736); assay: Ambit Biosciences kinase competition binding assay, PI3Kγ; settings: read-out: inhibitory activity against other isoforms: PI3Kγ
T1 construct: purchased Ambit Biosciences (San Diego, Calif., USA); host or cells: T7 phage in BL21-derived E. coli, or HEK-293
Experimental: (§1) Assays were performed as described in Fabian et al. (2005) Nature Biotechnology, vol. 23, p. 329 and in Karaman et al. (2008) Nature Biotechnology, vol. 26, p. 127.
(§2) Kinase assays. For most assays, kinase-tagged T7 phage strains were grown in parallel in 24-well blocks in an E. coli host derived from the BL21 strain. E. coli were grown to log-phase and infected with T7 phage from a frozen stock (multiplicity of infection ˜0.1) and incubated with shaking at 32° C. until lysis (˜90 minutes). The lysates were centrifuged (6,000×g) and filtered ([…]) to remove cell debris. The remaining kinases were produced in HEK-293 cells and subsequently tagged with DNA for qPCR detection. Streptavidin-coated magnetic beads were treated with biotinylated small molecule ligands for 30 minutes at room temperature to generate affinity resins for kinase assays. The liganded beads were blocked with excess biotin and washed with blocking buffer (SeaBlock (Pierce), 1% BSA, 0.05% Tween 20, 1 mM DTT) to remove unbound ligand and to reduce non-specific phage binding. Binding reactions were assembled by combining kinases, liganded affinity beads, and test compounds in 1× binding buffer (20% SeaBlock, 0.17× PBS, 0.05% Tween 20, 6 mM DTT). Test compounds were prepared as 40× stocks in 100% DMSO and directly diluted into the assay. […] The kinase concentration in the eluates was measured by qPCR. […]

PI3Kδ = biological target: T2, PI3Kδ (Homo sapiens, UniProt O00329); assay: Ambit Biosciences kinase competition binding assay, PI3Kδ
T2 construct: purchased Ambit Biosciences (San Diego, Calif., USA); host or cells: T7 phage in BL21-derived E. coli, or HEK-293
T2 sequence (O00329 1-1044): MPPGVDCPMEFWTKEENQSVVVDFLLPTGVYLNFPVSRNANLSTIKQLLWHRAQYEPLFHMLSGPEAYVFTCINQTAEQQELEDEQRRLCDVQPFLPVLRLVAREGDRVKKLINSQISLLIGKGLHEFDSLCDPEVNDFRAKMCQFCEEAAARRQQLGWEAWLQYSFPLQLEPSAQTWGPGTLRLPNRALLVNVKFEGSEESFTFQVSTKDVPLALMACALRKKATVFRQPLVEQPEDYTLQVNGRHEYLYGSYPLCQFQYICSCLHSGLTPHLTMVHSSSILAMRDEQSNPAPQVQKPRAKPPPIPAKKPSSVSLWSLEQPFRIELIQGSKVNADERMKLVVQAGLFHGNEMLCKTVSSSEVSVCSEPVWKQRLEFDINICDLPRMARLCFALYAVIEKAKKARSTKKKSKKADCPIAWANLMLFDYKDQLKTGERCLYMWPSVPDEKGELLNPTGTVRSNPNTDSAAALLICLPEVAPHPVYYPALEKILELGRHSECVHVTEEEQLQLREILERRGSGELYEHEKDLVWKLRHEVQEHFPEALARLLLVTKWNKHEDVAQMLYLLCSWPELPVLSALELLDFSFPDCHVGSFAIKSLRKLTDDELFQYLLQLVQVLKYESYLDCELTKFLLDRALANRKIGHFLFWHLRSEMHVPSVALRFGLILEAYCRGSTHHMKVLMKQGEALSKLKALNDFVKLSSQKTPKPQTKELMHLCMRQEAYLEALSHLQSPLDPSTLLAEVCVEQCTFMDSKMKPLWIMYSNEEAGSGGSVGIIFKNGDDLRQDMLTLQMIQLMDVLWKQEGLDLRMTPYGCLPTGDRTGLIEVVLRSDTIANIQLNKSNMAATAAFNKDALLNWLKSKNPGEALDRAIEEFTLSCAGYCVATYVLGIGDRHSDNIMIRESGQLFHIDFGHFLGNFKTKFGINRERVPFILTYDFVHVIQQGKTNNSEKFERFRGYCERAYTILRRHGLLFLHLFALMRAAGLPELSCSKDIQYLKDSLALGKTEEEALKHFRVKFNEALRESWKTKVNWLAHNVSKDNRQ
Experimental: Kinase assays. For most assays, kinase-tagged T7 phage strains were grown in parallel in 24-well blocks in an E. coli host derived from the BL21 strain. E. coli were grown to log-phase and infected with T7 phage from a frozen stock (multiplicity of infection ˜0.1) and incubated with shaking at 32° C. until lysis (˜90 minutes). The lysates were centrifuged (6,000×g) and filtered ([…]) to remove cell debris. The remaining kinases were produced in HEK-293 cells and subsequently tagged with DNA for qPCR detection. […] The liganded beads were blocked with excess biotin and washed with blocking buffer (SeaBlock (Pierce), 1% BSA, 0.05% Tween 20, 1 mM DTT) to remove unbound ligand and to reduce non-specific phage binding. […] Test compounds were prepared as 40× stocks in 100% DMSO and directly diluted into the assay. All reactions were performed in polypropylene 384-well plates in a final volume of 0.04 ml. […] The kinase concentration in the eluates was measured by qPCR.
Compounds were tested using the above assay at Ambit Biosciences (San Diego, Calif., USA).

PI3Kα = biological target: T3, PI3Kα (Homo sapiens, UniProt P42336); assay: Ambit Biosciences kinase competition binding assay, PI3Kα; settings: read-out: inhibitory activity against other isoforms: PI3Kα
T3 construct: purchased Ambit Biosciences (San Diego, Calif., USA); host or cells: T7 phage in BL21-derived E. coli, or HEK-293
Experimental: as §1, §2

PI3Kβ = biological target: T4, PI3Kβ (Homo sapiens, UniProt P42338); assay: Ambit Biosciences kinase competition binding assay, PI3Kβ; settings: read-out: inhibitory activity against other isoforms: PI3Kβ
T4 construct: purchased Ambit Biosciences (San Diego, Calif., USA); host or cells: T7 phage in BL21-derived E. coli, or HEK-293
Experimental: as §1, §2

mTor = biological target: T5, mTor (Homo sapiens, UniProt P42345); assay: Z′-LYTE biochemical assay for mTor; settings: at up to 1 μM
T5 construct: purchased Invitrogen Corp. (Madison, Wis., USA)
Experimental: The Z′-LYTE® biochemical assay for mTor The mTor kinase activity was assessed using the Z′-LYTE® biochemical assay of Invitrogen Corp. (Madison, Wis., USA).

T4 sequence (P42338 whole entry, canonical isoform): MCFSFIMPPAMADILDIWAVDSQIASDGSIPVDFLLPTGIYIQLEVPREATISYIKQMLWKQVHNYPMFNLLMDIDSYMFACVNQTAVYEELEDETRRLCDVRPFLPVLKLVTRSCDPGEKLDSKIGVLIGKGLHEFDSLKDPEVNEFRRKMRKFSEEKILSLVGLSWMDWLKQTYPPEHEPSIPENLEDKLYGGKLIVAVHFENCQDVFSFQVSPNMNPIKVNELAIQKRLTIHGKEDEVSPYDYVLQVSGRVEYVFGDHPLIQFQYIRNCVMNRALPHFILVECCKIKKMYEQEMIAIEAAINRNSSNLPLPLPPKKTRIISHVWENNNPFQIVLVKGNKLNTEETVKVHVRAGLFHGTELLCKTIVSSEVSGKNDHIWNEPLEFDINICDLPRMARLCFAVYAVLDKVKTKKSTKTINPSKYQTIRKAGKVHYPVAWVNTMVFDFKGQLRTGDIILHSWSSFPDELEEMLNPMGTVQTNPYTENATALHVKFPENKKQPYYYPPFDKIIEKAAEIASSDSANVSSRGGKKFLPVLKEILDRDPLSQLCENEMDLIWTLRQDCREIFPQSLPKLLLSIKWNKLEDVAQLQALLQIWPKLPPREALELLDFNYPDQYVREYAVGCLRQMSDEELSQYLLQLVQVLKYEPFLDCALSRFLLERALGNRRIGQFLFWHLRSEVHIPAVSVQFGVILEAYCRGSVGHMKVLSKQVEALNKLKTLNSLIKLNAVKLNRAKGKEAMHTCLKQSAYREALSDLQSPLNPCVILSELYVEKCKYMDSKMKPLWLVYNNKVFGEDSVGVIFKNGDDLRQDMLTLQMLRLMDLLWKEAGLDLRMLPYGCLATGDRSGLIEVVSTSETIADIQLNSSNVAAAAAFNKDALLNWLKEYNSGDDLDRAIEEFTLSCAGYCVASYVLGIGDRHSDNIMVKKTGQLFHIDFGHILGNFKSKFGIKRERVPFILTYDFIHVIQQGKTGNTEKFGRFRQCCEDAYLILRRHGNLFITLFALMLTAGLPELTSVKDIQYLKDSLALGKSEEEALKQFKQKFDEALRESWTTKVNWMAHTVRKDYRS
T3 sequence (P42336 whole entry, canonical isoform): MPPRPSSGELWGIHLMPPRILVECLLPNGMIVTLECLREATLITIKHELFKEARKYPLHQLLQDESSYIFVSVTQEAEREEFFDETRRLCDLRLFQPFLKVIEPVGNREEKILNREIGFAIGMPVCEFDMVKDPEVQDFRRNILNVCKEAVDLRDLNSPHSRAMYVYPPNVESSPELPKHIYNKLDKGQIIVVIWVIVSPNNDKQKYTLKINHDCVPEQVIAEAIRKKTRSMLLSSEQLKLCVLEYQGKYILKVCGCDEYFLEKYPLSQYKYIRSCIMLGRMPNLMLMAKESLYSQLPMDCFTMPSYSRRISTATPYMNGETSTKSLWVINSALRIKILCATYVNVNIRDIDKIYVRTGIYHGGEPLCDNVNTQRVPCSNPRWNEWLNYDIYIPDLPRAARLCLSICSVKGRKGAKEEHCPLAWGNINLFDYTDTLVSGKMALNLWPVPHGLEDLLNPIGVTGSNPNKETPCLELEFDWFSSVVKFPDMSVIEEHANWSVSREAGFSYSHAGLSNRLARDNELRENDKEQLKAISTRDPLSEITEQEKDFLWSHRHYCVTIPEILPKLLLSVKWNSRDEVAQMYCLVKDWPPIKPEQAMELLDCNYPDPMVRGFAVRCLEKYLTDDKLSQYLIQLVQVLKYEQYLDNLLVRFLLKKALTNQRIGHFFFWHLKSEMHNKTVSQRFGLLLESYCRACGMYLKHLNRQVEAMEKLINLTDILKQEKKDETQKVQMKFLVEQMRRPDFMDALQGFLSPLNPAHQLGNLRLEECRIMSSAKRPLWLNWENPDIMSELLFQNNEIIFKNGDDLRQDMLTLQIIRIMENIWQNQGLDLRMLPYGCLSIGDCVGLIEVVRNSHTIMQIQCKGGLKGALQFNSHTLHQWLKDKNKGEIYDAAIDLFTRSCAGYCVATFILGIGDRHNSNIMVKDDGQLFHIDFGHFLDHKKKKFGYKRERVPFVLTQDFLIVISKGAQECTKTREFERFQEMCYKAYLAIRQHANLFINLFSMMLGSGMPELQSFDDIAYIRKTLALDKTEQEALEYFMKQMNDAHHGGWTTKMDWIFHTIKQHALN
T1 sequence (P48736 whole entry, canonical isoform): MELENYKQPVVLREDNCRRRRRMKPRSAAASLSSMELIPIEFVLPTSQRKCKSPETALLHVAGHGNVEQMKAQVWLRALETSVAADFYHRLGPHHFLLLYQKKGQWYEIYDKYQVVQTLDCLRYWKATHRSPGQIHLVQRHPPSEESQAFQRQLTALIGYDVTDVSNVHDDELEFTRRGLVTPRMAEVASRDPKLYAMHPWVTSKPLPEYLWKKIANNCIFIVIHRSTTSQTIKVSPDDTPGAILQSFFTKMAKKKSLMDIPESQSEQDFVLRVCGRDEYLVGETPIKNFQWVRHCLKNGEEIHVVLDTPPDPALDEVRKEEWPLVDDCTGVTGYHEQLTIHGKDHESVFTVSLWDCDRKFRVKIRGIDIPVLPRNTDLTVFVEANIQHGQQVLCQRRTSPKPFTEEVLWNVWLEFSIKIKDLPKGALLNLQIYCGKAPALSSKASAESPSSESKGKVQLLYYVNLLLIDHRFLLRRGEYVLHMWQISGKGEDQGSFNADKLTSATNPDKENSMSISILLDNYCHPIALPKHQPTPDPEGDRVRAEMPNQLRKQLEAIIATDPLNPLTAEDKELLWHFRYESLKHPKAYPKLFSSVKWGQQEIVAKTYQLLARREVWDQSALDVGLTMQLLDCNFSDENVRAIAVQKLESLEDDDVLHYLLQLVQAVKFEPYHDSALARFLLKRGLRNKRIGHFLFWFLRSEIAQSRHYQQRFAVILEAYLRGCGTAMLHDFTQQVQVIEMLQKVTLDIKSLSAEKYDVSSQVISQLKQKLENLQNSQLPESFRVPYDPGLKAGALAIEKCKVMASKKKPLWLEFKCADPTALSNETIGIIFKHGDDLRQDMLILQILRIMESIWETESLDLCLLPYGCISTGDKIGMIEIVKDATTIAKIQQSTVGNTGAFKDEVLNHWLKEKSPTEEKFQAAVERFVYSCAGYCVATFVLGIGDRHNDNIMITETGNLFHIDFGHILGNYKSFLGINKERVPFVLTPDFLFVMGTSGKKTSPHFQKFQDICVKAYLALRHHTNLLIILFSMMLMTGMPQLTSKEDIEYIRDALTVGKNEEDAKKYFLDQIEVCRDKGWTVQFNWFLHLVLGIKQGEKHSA

IC50 (PI3Kδ; read-out: inhibition against PI3Kδ (IC50)) [nM] | Compound | IC50 (PI3Kγ) [nM] | IC50 (PI3Kα) [nM] | IC50 (PI3Kβ) [nM] | IC50 (PI3Kδ) [nM] | mTor kinase inhibition (mTor)
< 30 | CS(=O)(=O)N1CCN(CCn2cnc3c(-n4c(C(F)F)nc5ccccc54)nc(N4CCOCC4)nc32)CC1 [Example 14, 6-(2-difluoromethyl-benzoimidazol-1-yl)-9-[2-(4-methanesulfonyl-piperazin-1-yl)-ethyl]-2-morpholin-4-yl-9H-purine] | > 100 | > 100 | > 100 |  | 
 | OCCn1cnc2c(-n3c(C(F)F)nc4ccccc43)nc(N3CCOCC3)nc21 [Example 28, 2-{6-[2-(difluoromethyl)benzimidazol-1-yl]-2-morpholin-4-ylpurin-9-yl}ethan-1-ol] | > 100 | > 100 | > 100 | < 30 | did not significantly inhibit
